Laboratory results published in patent US20040110763A1, “Pyrazolopyridine compound and pharmaceutical use thereof” (priority 2000, published 2004).

Row | Compound | melting point [°C]
1 | CC(C)n1nc(-c2c(-c3ccccc3)nn3ccc(OCCC4CCCCC4)cc23)ccc1=O [Example 23, 5-(2-Cyclohexylethoxy)-3-(3-oxo-2-isopropyl-2,3-dihydropyridazin-6-yl)-2-phenylpyrazolo[1,5-a]pyridine] | 146 to 147
2 | CC(C)n1nc(-c2c(-c3ccccc3)nn3ccc(OCC(=O)NC4CCCC4)cc23)ccc1=O [Example 62, N-Cyclopentyl-2-{[3-(3-oxo-2-isopropyl-2,3-dihydropyridazin-6-yl)-2-phenylpyrazolo[1,5-a]pyridin-5-yl]oxy}acetamide] | 187 to 188
3 | CCOC(=O)COc1ccn2nc(-c3ccccc3)c(-c3ccc(=O)n(C(C)C)n3)c2c1 [Example 38, Ethyl {[3-(3-oxo-2-isopropyl-2,3-dihydropyridazin-6-yl)-2-phenylpyrazolo[1,5-a]pyridin-5-yl]oxy}acetate] | 193 to 194
4 | CC(C)n1nc(-c2c(-c3ccccc3)nn3ccc(C(=O)N4CCC(c5ccccc5)CC4)cc23)ccc1=O [Example 84, 5-[(4-Phenyl-1-piperidinyl)carbonyl]-3-(3-oxo-2-isopropyl-2,3-dihydropyridazin-6-yl)-2-phenylpyrazolo[1,5-a]-pyridine] | 184 to 185
5 | CC(C)OCCNC(=O)c1ccn2nc(-c3ccccc3)c(-c3ccc(=O)n(C(C)C)n3)c2c1 [Example 86, N-(2-Isopropoxyethyl)-3-(3-oxo-2-isopropyl-2,3-dihydropyridazin-6-yl)-2-phenylpyrazolo[1,5-a]pyridine-5-carboxamide] | 124 to 125
6 | COc1cccc(CNC(=O)COc2ccn3nc(-c4ccccc4)c(-c4ccc(=O)n(C(C)C)n4)c3c2)c1 [Example 59, 2-{[3-(3-Oxo-2-isopropyl-2,3-dihydropyridazin-6-yl)-2-phenylpyrazolo[1,5-a]pyridin-5-yl]oxy}-N-(3-methoxybenzyl)acetamide] | 166 to 167.5
7 | CNC(=O)c1ccn2nc(-c3ccccc3)c(-c3ccc(=O)n(C(C)C)n3)c2c1 [Example 88, N-Methyl-3-(3-oxo-2-isopropyl-2,3-dihydropyridazin-6-yl)-2-phenylpyrazolo[1,5-a]pyridine-5-carboxamide] | 225 to 226
8 | CC(C)CCOc1ccn2nc(-c3ccccc3)c(-c3ccc(=O)n(C(C)C)n3)c2c1 [Example 22, 5-Isopentyloxy-3-(3-oxo-2-isopropyl-2,3-dihydropyridazin-6-yl)-2-phenylpyrazolo[1,5-a]pyridine] | 163 to 163.5
9 | CC(C)n1nc(-c2c(-c3ccccc3)nn3ccc(OCCN4CCCC4=O)cc23)ccc1=O [Example 28, 5-[2-(2-Oxo-1-pyrrolidinyl)ethoxy]-3-(3-oxo-2-isopropyl-2,3-dihydropyridazin-6-yl)-2-phenylpyrazolo [1,5-a]pyridine] | 162 to 163
10 | CCOc1ccn2nc(-c3ccccc3)c(-c3ccc(=O)n(C(C)C)n3)c2c1 [Example 26, 5-Ethoxy-3-(3-oxo-2-isopropyl-2,3-dihydropyridazin-6-yl)-2-phenylpyrazolo[1,5-a]pyridine] | 181 to 182
11 | CC(=O)COc1ccn2nc(-c3ccccc3)c(-c3ccc(=O)n(C(C)C)n3)c2c1 [Example 27, 5-(2-Oxopropoxy)-3-(3-oxo-2-isopropyl-2,3-dihydropyridazin-6-yl)-2-phenylpyrazolo[1,5-a]pyridine] | 172.5 to 173.5
12 | CC(C)n1nc(-c2c(-c3ccccc3)nn3ccc(OCC(=O)NCCN(C)C)cc23)ccc1=O [Example 58, N-[2-(dimethylamino)ethyl]-2-{[3-(3-oxo-2-isopropyl-2,3-dihydropyridazin-6-yl)-2-phenylpyrazolo[1,5-a]pyridin-5-yl]oxy}acetamide] | 117 to 119
13 | CC(C)n1nc(-c2c(-c3ccccc3)nn3ccc(OCC(=O)NCCc4ccccn4)cc23)ccc1=O [Example 60, 2-{[3-(3-oxo-2-isopropyl-2,3-dihydropyridazin-6-yl)-2-phenylpyrazolo[1,5-a)pyridin-5-yl]oxy}-N-[2-(2-pyridinyl)-ethyl]acetamide] | 188 to 190
14 | CCOCCNC(=O)COc1ccn2nc(-c3ccccc3)c(-c3ccc(=O)n(C(C)C)n3)c2c1 [Example 67, N-(2-Ethoxyethyl)-2-{[3-(3-oxo-2-isopropyl-2,3-dihydropyridazin-6-yl)-2-phenylpyrazolo[1,5-a]pyridin-5-yl]oxy}acetamide] | 126.5 to 127.5
15 | CC(C)n1nc(-c2c(-c3ccccc3)nn3ccc(C(=O)NC(C)(C)C)cc23)ccc1=O [Example 83, N-(tert-Butyl)-3-(3-oxo-2-isopropyl-2,3-dihydropyridazin-6-yl)-2-phenylpyrazolo[1,5-a]pyridine-5-carboxamide] | 200 to 201
16 | CC(C)n1nc(-c2c(-c3ccccc3)nn3ccc(N4CCOCC4)cc23)ccc1=O [Example 98, 5-(4-Morpholinyl)-3-(3-oxo-2-isopropyl-2,3-dihydropyridazin-6-yl)-2-phenylpyrazolo[1,5-a]pyridine] | 182 to 187
17 | CC(C)n1nc(-c2c(-c3ccccc3)nn3ccc(Oc4ccccc4)cc23)ccc1=O [Example 37, 5-Phenoxy-3-(3-oxo-2-isopropyl-2,3-dihydropyridazin-6-yl)-2-phenylpyrazolo[1,5-a]pyridine] | 181 to 182
18 | CCCOc1ccn2nc(-c3ccccc3)c(-c3ccc(=O)n(C(C)C)n3)c2c1 [Example 21, 5-Propoxy-3-(3-oxo-2-isopropyl-2,3-dihydropyridazin-6-yl)-2-phenylpyrazolo[1,5-a]pyridine] | 161.5 to 162.5
19 | CC(C)n1nc(-c2c(-c3ccccc3)nn3ccc(OC4CCN(C(=O)N(C)C)CC4)cc23)ccc1=O [Example 56, N,N-Dimethyl-4-[{3-(3-oxo-2-isopropyl-2,3-dihydropyridazin-6-yl)-2-phenylpyrazolo[1,5-a]pyridin-5-yl}oxy]-1-piperidine carboxamide] | 164 to 166
20 | CCCCNC(=O)COc1ccn2nc(-c3ccccc3)c(-c3ccc(=O)n(C(C)C)n3)c2c1 [Example 65, N-Butyl-2-{[3-(3-oxo-2-isopropyl-2,3-dihydropyridazin-6-yl)-2-phenylpyrazolo[1,5-a]pyridin-5-yl]oxy}acetamide] | 151 to 152

Other lines, results leading:

Row | melting point [°C] | Compound
21 | 229 to 230 | CC(C)n1nc(-c2c(-c3ccccc3)nn3cccc(O)c23)ccc1=O [Example 195, 4-Hydroxy-3-(3-oxo-2-isopropyl-2,3-dihydropyridazin-6-yl)-2-phenylpyrazolo[1,5-a]pyridine]
22 | 124 to 126 | CC(C)n1nc(-c2c(-c3ccccc3)nn3ccc(N4CCN(C(=O)c5ccccc5)CC4)cc23)ccc1=O [Example 112, 5-(4-Benzoyl-1-piperazinyl)-3-(3-oxo-2-isopropyl-2,3-dihydropyridazin-6-yl)-2-phenylpyrazolo[1,5-a]pyridine]
23 | 185 to 186 | CCCCNC(=O)c1ccn2nc(-c3ccccc3)c(-c3ccc(=O)n(C(C)C)n3)c2c1 [Example 143, N-(n-Butyl)-3-(3-oxo-2-isopropyl-2,3-dihydropyridazin-6-yl)-2-phenylpyrazolo[1,5-a]pyridine-5-carboxamide]
24 | 193 to 194 | CC(C)n1nc(-c2c(-c3ccccc3)nn3ccc(NS(C)(=O)=O)cc23)ccc1=O [Example 150, 5-Methylsulfonylamino-3-(3-oxo-2-isopropyl-2,3-dihydropyridazin-6-yl)-2-phenylpyrazolo[1,5-a]pyridine]
25 | 196 to 197 | CC(C)n1nc(-c2c(-c3ccccc3)nn3ccc(N)cc23)ccc1=O [Example 146, 5-amino-3-(3-oxo-2-isopropyl-2,3-dihydropyridazin-6-yl)-2-phenylpyrazolo[1,5-a]pyridine]
26 | 129 to 130 | CC(C)n1nc(-c2c(-c3ccccc3)nn3ccc(N4CCN(C(=O)CN(C)C)CC4)cc23)ccc1=O [Example 114, 5-{4-[(dimethylamino)acetyl]-1-piperazinyl}-3-(3-oxo-2-isopropyl-2,3-dihydropyridazin-6-yl)-2-phenylpyrazolo[1,5-a]pyridine]
27 | 148 to 149 | CCn1nc(-c2c(-c3ccccc3)nn3ccc(OC)cc23)ccc1=O [Example 116, 5-Methoxy-3-(3-oxo-2-ethyl-2,3-dihydropyridazin-6-yl)-2-phenylpyrazolo[1,5-a]pyridine]
28 | 176 to 177 | CC(C)n1nc(-c2c(-c3ccccc3)nn3ccc(N4C[C@@H](C)O[C@@H](C)C4)cc23)ccc1=O [Example 100, 5-(cis-2,6-Dimethyl-4-morpholinyl)-3-(3-oxo-2-isopropyl-2,3-dihydropyridazin-6-yl)-2-phenylpyrazolo[1,5-a]-pyridine]
29 | 219 to 220 | CC(C)n1nc(-c2c(-c3ccccc3)nn3ccc(N4CCN(S(C)(=O)=O)CC4)cc23)ccc1=O [Example 110, 5-[4-(Methylsulfonyl)-1-piperazinyl]-3-(3-oxo-2-isopropyl-2,3-dihydropyridazin-6-yl)-2-phenylpyrazolo[1,5-a]pyridine]
30 | 185 to 186 | CC(C)n1nc(-c2c(-c3ccccc3)nn3ccc(C#Cc4ccccc4)cc23)ccc1=O [Example 138, 5-Phenylethynyl-3-(3-oxo-2-isopropyl-2,3-dihydropyridazin-6-yl)-2-phenylpyrazolo[1,5-a]pyridine]
31 | 157 to 158 | CCOc1cccn2nc(-c3ccccc3)c(-c3ccc(=O)n(C(C)C)n3)c12 [Example 196, 4-ethoxy-3-(3-oxo-2-isopropyl-2,3-dihydropyridazin-6-yl)-2-phenylpyrazolo[1,5-a]pyridine]
32 | 221 to 222 | CC(=O)Nc1ccn2nc(-c3ccccc3)c(-c3ccc(=O)n(C(C)C)n3)c2c1 [Example 147, 5-acetylamino-3-(3-oxo-2-isopropyl-2,3-dihydropyridazin-6-yl)-2-phenylpyrazolo[1,5-a]pyridine]
33 | 148 to 150 | COCN(COC)c1ccn2nc(-c3ccccc3)c(-c3ccc(=O)n(C(C)C)n3)c2c1 [Example 154, 5-[bis(methoxymethyl)amino]-3-(3-oxo-2-isopropyl-2,3-dihydropyridazin-6-yl)-2-phenylpyrazolo[1,5-a]pyridine]
